We go through 1 molecule from patent publication US20230303598A1, “BIOINSPIRED LIPID DERIVATIVES AND USES THEREOF” (Ohio State Innovation Foundation, priority 2020, published 2023).

The assay has as its system Hep3b cells. In words: in vitro mRNA delivery screening of ionizable lipid LNPs with mRNA encoding firefly luciferase. The class given is cell-based. Conditions: LNPs of compound/DOPE/cholesterol/PEG-lipid at ratios 20:30:40:0.75, 40:30:40:0.75 and 60:30:40:0.75, Hep3b cells (FIGS. 1-3). From the text:
FIG. 1 illustrates the results of in vitro mRNA delivery screening of ionizable lipids in Hep3b cells at a ratio of 20:30:40:0.75 (compound/DOPE/cholesterol/PEG-lipid).
FIG. 2 illustrates the results of in vitro mRNA delivery screening of ionizable lipids in Hep3b cells at a ratio of 40:30:40:0.75 (compound/DOPE/cholesterol/PEG-lipid).
FIG. 3 illustrates the results of in vitro mRNA delivery screening of ionizable lipids in Hep3b cells at a ratio of 60:30:40:0.75 (compound/DOPE/cholesterol/PEG-lipid).
Phosphates and phosporamide lipid-like compounds First, forty ionizable lipids were synthesized. Then, these ionizable lipids were formulated with DOPE/cholesterol/PEG-lipid at three different ratios (20:30:40:0.75, 40:30:40:0.75, and 60:30:40:0.75) to prepare lipid nanoparticles (LNPs) and screened in Hep3b cells using mRNA-encoding firefly luciferase.

As to `CCCCCCCC/C=C\CCCCCCCCOP(=O)(OCCCCCCCC/C=C\CCCCCCCC)OCCN(C)C` [ZYB20200113-1], the mRNA delivery effectiveness entry was “more effective for mRNA delivery than other ionizable lipids”.
